Source: US6136327A, “Stereospecific delivery of a drug using electrotransport” (priority 1997, dated 2000)

Tests used:
clinical = settings: in vivo; for AUC(0-inf): AUCinf
Experimental: A study was performed in order to compare the pharmacokinetic parameters of R- and S-ketorolac following intravenous, passive transdermal and electrotransport administration of a racemic mixture of ketorolac.
Twelve healthy male volunteers were enrolled in a pilot feasibility study. Subjects were required to undergo a pre-study screening to evaluate whether they met study inclusion or exclusion criteria. Screening procedures included a medical history, physical exam, electrocardiogram and clinical laboratory tests.
The study was an open-label, randomized, three-treatment crossover pharmacokinetics study designed to compare plasma ketorolac concentrations during 24-hour treatment regimens with an electrotransport system ("ETS"), a (passive) therapeutic transdermal system ("TTS") and intravenous ketorolac bolus injection.
The ketorolac treatments are listed below; there was a washout period of at least 6 days between treatments.
During the ETS (ketorolac) treatment, each subject was expected to receive an estimated 26 mg of ketorolac free acid over a 24-hour period, delivered by electrotransport from a total cathode area of 18 cm^2, based on an estimated in vitro flux rate of 60 μg/cm^2 /h.
Three electrotransport systems, with a total cathode gel area of 18 cm^2, were applied to the upper arms of each subject in this study. Each of the three controllers was set to provide a total direct current of 0.6 mA, which maintained a current density of 100 μA/cm^2.
During TTS treatment, each subject was expected to receive an estimated 50 mg of ketorolac free acid over a 24-hour period, delivered passively through the skin from a total application area of 75 cm^2 based on an estimated in vitro flux rate of 25 to 30 μg/cm^2 /h.
The TTS systems were produced with a backing and protective liner in a 25 cm^2 size. The system formulation contained drug (free acid), ethylene vinyl acetate (40% vinyl acetate), glycerol monolaurate, and Ceraphyl® 31. Three TTS monoliths, with a total surface area of 75 cm^2, were used to deliver the drug. The combined systems contained 135 mg of ketorolac free acid. Because the systems were not self-adhesive, an adhesive overlay was required to ensure good skin contact.
During the intravenous bolus treatment, each subject received a total of 24 mg of ketorolac free acid (36 mg of ketorolac tromethamine salt). Drug was delivered by IV bolus injections of 12 mg of ketorolac free acid (18 mg of ketorolac tromethamine salt) which were administered at Hour 0 and at Hour 12. A 1 mL aliquot of each ketorolac solution was retained directly after syringe preparation and prior to injection.
Initially either the ETS or the TTS was applied, or the first intravenous injection was administered. ETS and TTS treatments continued for 24 hours, and the bolus treatment was completed after the second dose at 12 hours. Blood and urine samples were collected at intervals during a 48-hour period after initiation of each ketorolac treatment regimen.
Blood samples, 7 mL each, were collected from each subject at intervals during the 48 hour period after initiation of treatment.
Plasma levels of ketorolac were determined by HPLC assay, performed at the Clinical Pharmacology Division of the School of Medicine at Indiana University, Wishard Memorial Hospital, Indianapolis, Ind.
Actual blood sample collection times were used for all calculations and data were summarized by nominal sampling times. Plasma ketorolac concentrations below the assay quantification limit of 20 ng/mL were assigned a value of zero.

[1] = in vivo
Experimental: The transport of the R- and S-isomers of ketorolac was evaluated using passive transdermal delivery and electrotransport, in a study conducted in healthy volunteers. Intravenous bolus administration of 24 mg racemic ketorolac served as the reference treatment. The relative amounts of R- and S-ketorolac absorbed following passive transdermal and electrotransport administration were determined relative to intravenous R- and S-ketorolac clearance (assuming that the racemic ketorolac contained equal amounts of the R- and S-isomers).

[2] = in vivo; cited from earlier work
[3] = transdermal; cited from earlier work

Compound	Plasma Ketorolac Concentrations (clinical; human, 60 min) [ng/mL]	Plasma Ketorolac Concentrations (clinical; human, 90 min) [ng/mL]	Plasma Ketorolac Concentrations (clinical; human, 360 min) [ng/mL]	Plasma Ketorolac Concentrations (clinical; human, 480 min) [ng/mL]	Plasma Ketorolac Concentrations (clinical; human, 720 min) [ng/mL]	Plasma Ketorolac Concentrations (clinical; human, 960 min) [ng/mL]	Plasma Ketorolac Concentrations (clinical; human, 1680 min) [ng/mL]	AUC inf (clinical; human, iv) [ng·h/mL]	Apparent elimination rate constant (k) (clinical; human, iv) [h⁻¹]	C max (clinical; human, iv) [ng/mL]	K2 (elimination rate constant) (clinical; human, iv) [h⁻¹]	Volume (clinical; human, iv) [L]	Plasma Ketorolac Concentrations (clinical; human, iv, 720 min) [ng/mL]	Plasma Ketorolac Concentrations (clinical; human, iv, 14 h) [ng/mL]	AUC(0-inf) (clinical; human, iv) [ng·h/mL]	Amount Delivered (AD), ETS/IV (amount absorbed) (clinical; iv) [mg]	Amount Delivered (AD), TTS/IV (amount absorbed) (clinical; iv) [mg]	K1 (distribution rate constant) (clinical; iv) [h⁻¹]	clearance, R- vs S-ketorolac (clinical; iv)	other results
O=C(c1ccccc1)c1ccc2n1CC[C@@H]2C(=O)O [S-ketorolac]	0.0	0.0	0.0	0.0	0.0	0.0	0.0	1566	0.41	404	0.35	10.33	0.0	113.0	1560	11.65	4.76	2.10	differed	Plasma Ketorolac Concentrations (clinical; human, 1200 min): 0.0 ng/mL; Plasma Ketorolac Concentrations (clinical; human, 1440 min): 0.0 ng/mL; Plasma Ketorolac Concentrations (clinical; human, 1470 min): 0.0 ng/mL; Plasma Ketorolac Concentrations (clinical; human, 1500 min): 0.0 ng/mL; Plasma Ketorolac Concentrations (clinical; human, 1560 min): 0.0 ng/mL; T max (clinical; human, iv): 0.5 h; Plasma Ketorolac Concentrations (clinical; human, iv, 240 min): 0.0 ng/mL; Plasma Ketorolac Concentrations (clinical; human, iv, 360 min): 0.0 ng/mL; Plasma Ketorolac Concentrations (clinical; human, iv, 480 min): 0.0 ng/mL; Plasma Ketorolac Concentrations (clinical; human, iv, 1080 min): 0.0 ng/mL; Plasma Ketorolac Concentrations (clinical; human, iv, 1200 min): 0.0 ng/mL; Plasma Ketorolac Concentrations (clinical; human, iv, 1440 min): 0.0 ng/mL; Plasma Ketorolac Concentrations (clinical; human, topical or ocular, 16 h): 58.0 ng/mL; Plasma Ketorolac Concentrations (clinical; human, topical or ocular, 28 h): 21.0 ng/mL; S/R ratio of amount absorbed, mean [1]: 1.15; S/R ratio of amount absorbed, median [1]: 1.18; S/R ratio of amount absorbed, range [1]: 0.8-1.43; clearance vs other enantiomer [2]: more rapid clearance than the other enantiomer
O=C(c1ccccc1)c1ccc2n1CC[C@H]2C(=O)O [R-ketorolac]	0.0	0.0	0.0	0.0	0.0	0.0	0.0	6171	0.125	872	0.15	5.4	0.0	386.0	6250	7.9	4.96	1.54	differed	Plasma Ketorolac Concentrations (clinical; human, 240 min): 0.0 ng/mL; Plasma Ketorolac Concentrations (clinical; human, 1920 min): 0.0 ng/mL; Plasma Ketorolac Concentrations (clinical; human, 2880 min): 0.0 ng/mL; AUC(0-inf) (clinical; human): 5640 ng·h/mL; Apparent half-life (t1/2) (clinical; human, iv): 4.3 h; k el (clinical; human, iv, Apparent elimination rate constant (k)): 3.89e-05 s⁻¹; half-life (clinical; human, iv, Apparent half-life (t1/2)): 5 h; Plasma Ketorolac Concentrations (clinical; human, topical or ocular, 1.5 h): 37.0 ng/mL; Plasma Ketorolac Concentrations (clinical; human, topical or ocular, 12 h): 67.0 ng/mL; Plasma Ketorolac Concentrations (clinical; human, topical or ocular, 20 h): 29.0 ng/mL; Plasma Ketorolac Concentrations (clinical; human, topical or ocular, 24.5 h): 211.0 ng/mL; plasma concentrations during TTS compared with ETS (clinical): lower than those observed during ETS administration; T max (clinical; iv): 0.5 h
phenylpropanolamine	–	–	–	–	–	–	–	–	–	–	–	–	–	–	–	–	–	–	–	flux rates of individual purified isomers [3]: nearly identical flux rates
